Reference: patent US9156801B2, “2-substituted oleanolic acid derivative, method preparing for same, and application thereof” (HANGZHOU BENSHENG PHARMACEUTICAL CO., LTD., priority 2011, dated 2015)
≈ marks a conversion by molar mass, not a printed value.

Assays:
Jurkat cell line = assay: leukemia cell growth inhibition, MTT; assay type: cell-based; conditions: Homo sapiens, 72 h; for inhibition at 16 µg/mL: 16 μg/mL compound, read-out: IR (cell proliferation inhibition rate)
Text: (§1) Leukemia cell lines: leukemia cell lines: K562/adr (drug-resistant, chronic myeloid leukemia, CML), NB4 (acute promyelocytic leukemia, AML), Kasumi-1 (acute myeloid leukemia M2 type, AML-M2), Jurkat (acute lymphoblastic leukemia, ALL), all of which are donated by Cancer Research Institute of Zhejiang University, China; and H9 (acute lymphoblastic leukemia, ALL), which is purchased from China Center for Type Culture Collection (CCTCC).
(§2) Obtaining 6000 well-growing leukemia cells and inoculating them into wells of a 96-well cell culture plate. The culture medium is the 1640 cell culture medium containing 10% fetal bovine serum. After adding the 2-substituted oleanolic acid derivatives of different concentrations and mixing uniformly, placing the plate in a carbon dioxide cell incubator (5% CO2) at 37° C. and incubated for 72 hours. Then the relative number of viable cells is determined by MTT method. In this experiment, cell proliferation inhibition rate in control group (not treated with any compound) is set as 0%.

NB4 cell line = assay: leukemia cell growth inhibition, MTT; assay type: cell-based; conditions: Homo sapiens, NB-4; for inhibition at 16 µg/mL: NB4, 16 μg/mL compound, 72 h, read-out: IR (cell proliferation inhibition rate); for IC50: NB4, 72 h
Text: as §1, §2

K562/adr cell line = assay: leukemia cell growth inhibition, MTT; assay type: cell-based; conditions: Homo sapiens, 72 h; for IC50: K562/Adr; for inhibition at 16 µg/mL: K562/adr, 16 μg/mL compound, read-out: IR (cell proliferation inhibition rate)
Text: as §1, §2

Kasumi-1 cell line = assay: leukemia cell growth inhibition, MTT; assay type: cell-based; conditions: Homo sapiens; for inhibition at 16 µg/mL: Kasumi-1, 16 μg/mL compound, 72 h, read-out: IR (cell proliferation inhibition rate); for IC50: Kasumi-1, 72 h
Text: as §1, §2

H9 cell line = assay: leukemia cell growth inhibition, MTT; assay type: cell-based; conditions: Homo sapiens; for IC50: H9, 72 h; for inhibition at 16 µg/mL: H9, 16 μg/mL compound, 72 h, read-out: IR (cell proliferation inhibition rate)
Text: as §1, §2

RPMI8226 cell line = assay: multiple myeloma cell growth inhibition, MTT; assay type: cell-based; conditions: Homo sapiens, RPMI-8226; for inhibition at 16 µg/mL: RPMI8226, 16 μg/mL compound, 72 h, read-out: IR (cell proliferation inhibition rate); for IC50: RPMI8226, 72 h
Experimental: Multiple myeloma cell lines: RPMI8226 (multiple myeloma), purchased from Fuxiang Bio-tech Co. Ltd., Shanghai, China.
Obtaining 6000 well-growing cells as above and inoculating them into wells of a 96-well cell culture plate. The culture medium is the 1640 cell culture medium containing 10% fetal bovine serum. After adding the 2-substituted oleanolic acid derivatives of different concentrations and mixing uniformly, placing the plate in a carbon dioxide cell incubator (5% CO2) at 37° C. and incubated for 72 hours. Then the relative number of viable cells is determined by MTT method. In this experiment, cell proliferation inhibition rate in control group (not treated with any compound) is set as 0%.

PC-3 cell line = assay: solid tumor cell growth inhibition, MTT; assay type: cell-based; conditions: Homo sapiens; for IC50: PC-3, 72 h; for inhibition at 16 µg/mL: PC-3, 16 μg/mL compound, 72 h, read-out: IR (cell proliferation inhibition rate)
Experimental: (§3) Hep-2 (laryngeal carcinoma), A549 (human lung cancer), CaES-17 (esophageal cancer cell), PC-3 (prostate cancer), CNE (nasopharyngeal carcinoma cell), and SK-OV-3 (ovarian cancer cell), all of which are purchased from China Center For Type Culture Collection; RKO (human colon adenocarcinoma cell), MGC 803 (human gastric cancer cell), MG63 (osteosarcoma) and U87 MG (malignant glioma cell), all of which are purchased from Fuxiang Bio-tech Co. Ltd., Shanghai, China; PANC-1 (pancreatic cancer), Hep G2 (human liver cancer cell), Becap37 (human breast cancer cell), and Hela (human cervical cancer cell), all of which are donated by Cancer Research Institute of Zhejiang University, China.
(§4) Obtaining 4000 well-growing human solid tumor cells and inoculating them into wells of a 96-well cell culture plate. The culture medium is DMEM High Glucose cell culture medium containing 10% fetal bovine serum. The plate is placed in a carbon dioxide cell incubator (5% CO2) at 37° C. for 24 hours. After adding the 2-substituted oleanolic acid derivatives of different concentrations and mixing uniformly, the plate is placed in a carbon dioxide cell incubator (5% CO2) at 37° C. and incubated for 72 hours. Then the relative number of the living cells is determined by MTT method. In this experiment, the cell proliferation inhibition rate in control group (not treated with any compound) is set as 0%.

A549 cell line = assay: solid tumor cell growth inhibition, MTT; assay type: cell-based; conditions: Homo sapiens; for IC50: A549, 72 h; for inhibition at 16 µg/mL: A549, 16 μg/mL compound, 72 h, read-out: IR (cell proliferation inhibition rate)
Experimental: as §3, §4

PANC-1 cell line = assay: solid tumor cell growth inhibition, MTT; assay type: cell-based; conditions: Homo sapiens; for IC50: PANC-1, 72 h; for inhibition at 16 µg/mL: PANC-1, 16 μg/mL compound, 72 h, read-out: IR (cell proliferation inhibition rate)
Experimental: as §3, §4

Hep-2 cell line = assay: solid tumor cell growth inhibition, MTT; assay type: cell-based; conditions: Homo sapiens; for IC50: HEp-2, 72 h; for inhibition at 16 µg/mL: Hep-2, 16 μg/mL compound, 72 h, read-out: IR (cell proliferation inhibition rate)
Experimental: as §3, §4

MG-63 cell line = assay: solid tumor cell growth inhibition, MTT; assay type: cell-based; conditions: Homo sapiens; for IC50: MG-63, 72 h; for inhibition at 16 µg/mL: MG-63, 16 μg/mL compound, 72 h, read-out: IR (cell proliferation inhibition rate)
Experimental: as §3, §4

Becap37 cell line = assay: solid tumor cell growth inhibition, MTT; assay type: cell-based; conditions: Homo sapiens; for inhibition at 16 µg/mL: Becap37, 16 μg/mL compound, 72 h, read-out: IR (cell proliferation inhibition rate); for IC50: Becap37, 72 h
Experimental: as §3, §4

U87 MG cell line = assay: solid tumor cell growth inhibition, MTT; assay type: cell-based; conditions: Homo sapiens, U-87 MG, 72 h; for inhibition at 16 µg/mL: 16 μg/mL compound, read-out: IR (cell proliferation inhibition rate)
Experimental: as §3, §4

RKO cell line = assay: solid tumor cell growth inhibition, MTT; assay type: cell-based; conditions: Homo sapiens, 72 h; for inhibition at 16 µg/mL: 16 μg/mL compound, read-out: IR (cell proliferation inhibition rate)
Experimental: as §3, §4

Hela cell line = assay: solid tumor cell growth inhibition, MTT; assay type: cell-based; conditions: Homo sapiens, 72 h; for IC50: HeLa; for inhibition at 16 µg/mL: Hela, 16 μg/mL compound, read-out: IR (cell proliferation inhibition rate)
Experimental: as §3, §4

SK-OV-3 cell line = assay: solid tumor cell growth inhibition, MTT; assay type: cell-based; conditions: Homo sapiens; for IC50: SK-OV-3, 72 h; for inhibition at 16 µg/mL: SK-OV-3, 16 μg/mL compound, 72 h, read-out: IR (cell proliferation inhibition rate)
Experimental: as §3, §4

MGC 803 cell line = assay: solid tumor cell growth inhibition, MTT; assay type: cell-based; conditions: Homo sapiens; for inhibition at 16 µg/mL: MGC 803, 16 μg/mL compound, 72 h, read-out: IR (cell proliferation inhibition rate); for IC50: MGC 803, 72 h
Experimental: as §3, §4

CNE cell line = assay: solid tumor cell growth inhibition, MTT; assay type: cell-based; conditions: Homo sapiens, 72 h; for inhibition at 16 µg/mL: 16 μg/mL compound, read-out: IR (cell proliferation inhibition rate)
Experimental: as §3, §4

CaES-17 cell line = assay: solid tumor cell growth inhibition, MTT; assay type: cell-based; conditions: Homo sapiens, CaEs17; for inhibition at 16 µg/mL: CaES-17, 16 μg/mL compound, 72 h, read-out: IR (cell proliferation inhibition rate); for IC50: CaES-17, 72 h
Experimental: as §3, §4

Hep G2 cell line = assay: solid tumor cell growth inhibition, MTT; assay type: cell-based, human; conditions: Homo sapiens; for inhibition at 16 µg/mL: HepG2, 72 h, Hep G2, 16 μg/mL compound, 72 h, read-out: IR (cell proliferation inhibition rate); for IC50: HepG2, Hep G2, 72 h
Experimental: as §3, §4

Compound	inhibition at 16 µg/mL (Jurkat cell line)	IC50 (Jurkat cell line)	inhibition at 16 µg/mL (NB4 cell line)	IC50 (NB4 cell line)	IC50 (K562/adr cell line)	inhibition at 16 µg/mL (K562/adr cell line)	inhibition at 16 µg/mL (Kasumi-1 cell line)	IC50 (Kasumi-1 cell line)	IC50 (H9 cell line)	inhibition at 16 µg/mL (H9 cell line)	inhibition at 16 µg/mL (RPMI8226 cell line)	IC50 (RPMI8226 cell line)	IC50 (PC-3 cell line)	inhibition at 16 µg/mL (PC-3 cell line)	IC50 (A549 cell line)	inhibition at 16 µg/mL (A549 cell line)	IC50 (PANC-1 cell line)	inhibition at 16 µg/mL (PANC-1 cell line)	IC50 (Hep-2 cell line)	inhibition at 16 µg/mL (Hep-2 cell line)	other results
CC1(C)CC[C@]2(C(=O)O)CC[C@]3(C)C(=CC[C@@H]4[C@@]5(C)CC(C(=O)NCCN6CCCC6)C(=O)C(C)(C)[C@@H]5CC[C@]43C)[C@@H]2C1 (some centres unmarked) [BS-OA-105]	37.5%	> 16 µg/mL	74.7%	10.6 µg/mL (≈ 17.8 µM)	6.52 µg/mL (≈ 11 µM)	85%	36.6%	> 16 µg/mL	> 16 µg/mL	31.5%	81.8%	10.5 µg/mL (≈ 17.7 µM)	> 16 µg/mL	18.4%	> 16 µg/mL	24%	> 16 µg/mL	16.9%	> 16 µg/mL	28.4%	IC50 (MG-63 cell line): 12.6 µg/mL (≈ 21.1 µM); inhibition at 16 µg/mL (MG-63 cell line): 54.6%; inhibition at 16 µg/mL (Becap37 cell line): 43.7%; IC50 (Becap37 cell line): > 16 µg/mL; inhibition at 16 µg/mL (U87 MG cell line): 61.7%; IC50 (U87 MG cell line): 2.31 µg/mL (≈ 3.88 µM); inhibition at 16 µg/mL (RKO cell line): 8.6%; IC50 (RKO cell line): > 16 µg/mL; IC50 (Hela cell line): 7.29 µg/mL (≈ 12.3 µM); inhibition at 16 µg/mL (Hela cell line): 68.1%; IC50 (SK-OV-3 cell line): > 16 µg/mL; inhibition at 16 µg/mL (SK-OV-3 cell line): 5%; inhibition at 16 µg/mL (MGC 803 cell line): 29.2%; IC50 (MGC 803 cell line): > 16 µg/mL; inhibition at 16 µg/mL (CNE cell line): 54.5%; IC50 (CNE cell line): 10.6 µg/mL (≈ 17.8 µM); inhibition at 16 µg/mL (CaES-17 cell line): 45%; IC50 (CaES-17 cell line): 18.9 µg/mL (≈ 31.7 µM); inhibition at 16 µg/mL (Hep G2 cell line): 29.5%; IC50 (Hep G2 cell line): > 16 µg/mL
COC(=O)[C@]12CCC(C)(C)CC1C1=CCC3[C@@]4(C)CC(C(=O)NCCCN5CCCC5)C(=O)C(C)(C)C4CC[C@@]3(C)[C@]1(C)CC2 (some centres unmarked) [BS-OA-016]	95.1%	2.38 µg/mL (≈ 3.82 µM)	99.8%	2.94 µg/mL (≈ 4.72 µM)	0.52 µg/mL (≈ 0.835 µM)	97.8%	99.1%	3.76 µg/mL (≈ 6.04 µM)	2.96 µg/mL (≈ 4.75 µM)	95.4%	99%	1.15 µg/mL (≈ 1.85 µM)	5.06 µg/mL (≈ 8.12 µM)	99.8%	2.45 µg/mL (≈ 3.93 µM)	96.8%	4.38 µg/mL (≈ 7.03 µM)	98.5%	5.85 µg/mL (≈ 9.39 µM)	97.2%	IC50 (MG-63 cell line): 4.35 µg/mL (≈ 6.98 µM); inhibition at 16 µg/mL (MG-63 cell line): 100%; inhibition at 16 µg/mL (Becap37 cell line): 99.5%; IC50 (Becap37 cell line): 5.12 µg/mL (≈ 8.22 µM); inhibition at 16 µg/mL (U87 MG cell line): 100%; IC50 (U87 MG cell line): 2.45 µg/mL (≈ 3.93 µM); inhibition at 16 µg/mL (RKO cell line): 99.4%; IC50 (RKO cell line): 3.33 µg/mL (≈ 5.35 µM); IC50 (Hela cell line): 3.78 µg/mL (≈ 6.07 µM); inhibition at 16 µg/mL (Hela cell line): 98%; IC50 (SK-OV-3 cell line): 5.04 µg/mL (≈ 8.09 µM); inhibition at 16 µg/mL (SK-OV-3 cell line): 99.5%; inhibition at 16 µg/mL (MGC 803 cell line): 99.1%; IC50 (MGC 803 cell line): 3 µg/mL (≈ 4.82 µM); inhibition at 16 µg/mL (CNE cell line): 99.4%; IC50 (CNE cell line): 4.07 µg/mL (≈ 6.53 µM); inhibition at 16 µg/mL (CaES-17 cell line): 99.4%; IC50 (CaES-17 cell line): 3.93 µg/mL (≈ 6.31 µM); inhibition at 16 µg/mL (Hep G2 cell line): > 96%; IC50 (Hep G2 cell line): 2.58 µg/mL (≈ 4.14 µM)
